Assay results taken from USRE31588E, “Imidazolylmethylthioethyl alkynyl guanidines” (Bristol-Myers Company, priority 1981, dated 1984).
“Also recorded” adds a separate entry of the source.

Experiments:
peptic ulcer disease = conditions: Gray et al., Lancet 1977; cited from earlier work
[1] = clinical; cited from earlier work
H2 receptor = conditions: cited from earlier work
[2] = in vivo, cited from earlier work
gastric acid output [3] = assay: Gastric antisecretory activity in the gastric fistula dog (histamine-induced); assay type: in vivo, dog (beagle); conditions: for Onset of inhibitory effect on gastric acid output: iv
Experimental: Thomas type [Thomas, J. E., Proc. Soc. exp. Biol. Med., 46, 260 (1941)] stainless steel cannulae are inserted into the stomachs of beagle dogs (10-12 kg.) just orad to the pyloric gland area near the greater curvature to provide a chronic gastric fistula. Animals are allowed to recover for at least two months before any testing is done. Dogs are fasted overnight (~18 hours) with water ad lib prior to each experiment. The dogs are placed in a sling and an eight inch inside needle catheter (C. R. Baird, Inc.) with a 2 inch 17 gauge needle is inserted into a leg vein fior purposes of drug administration. Gastric secretions are collected every 15 minutes by gravity drainage from the opened cannula. […] A modification of the procedure described by Grossman and Konturek, Gastroenterology, 66, 517 (1974) was followed. […] Each 15 minute sample of gastric juice is measured to the nearest 0.5 ml. and titratable acidity against 0.02N NaOH (endpoint pH 7.0) is measured with an Autoburet and pH meter (radiometer). The percent inhibition of acid output is calculated as described in the pylorus ligated rat procedure.

[4] = molecular target: T1, histamine H2-receptors (isolated, spontaneously beating guinea pig right atria) (Cavia porcellus, UniProt P47747); assay: Histamine H2-receptor antagonism, isolated guinea pig atria assay; assay type: cell-based; design: The spontaneously beating right atrium was dissected free from other tissues; from tissue; host or cells: isolated, spontaneously beating right atrium of male Hartley guinea pigs; conditions: for Histamine ED50 (concentration of histamine which increased contractile rate 50% of maximum) after test compound: test compound 1 × 10^-5 M, 30 minute incubation
Experimental: Subsequent investigations by Hughes and Coret, Proc. Soc. […] Black et al., Agents and Actions, 3, 133 (1973) and Brimblecombe et al., Fed. […] The present comparative studies were carried out using a modification of the procedure reported by Reinhardt et al., Agents and Actions, 4, 217 (1974).
Male Hartley strain guinea pigs (350-450 gm.) were sacrificed by a blow on the head. The heart was excised and placed in a Petri dish of oxygenated (95% O2, 5% CO2) modified Krebs solution (g./liter: NaCl 6.6, KCl 0.35, MgSO4. 7 H2 O 0.295, KH2 PO4 0.162, CaCl2 0.238, NaHCO3 2.1 and dextrose 2.09). The spontaneously beating right atrium was dissected free from other tissues and a silk thread (4-0) attached to each end. The atrium was suspended in a 20 ml. muscle chamber containing oxygenated modified Krebs solution maintained at 32° C. Atrial contractions were recorded isometrically by means of a Grass FT 0.03 force displacement transducer and recordings of contractile force and rate were made with a Beckman RP Dynograph.
A resting tension of 1 g. was applied to the atrium and it was allowed to equilibrate for 1 hour.
Concentration-response curve displacement factors were calculated as follows: [formula] The factor obtained for BL-5641 was then expressed as a ratio of the factor obtained for cimetidine. [formula]

gastric secretion = conditions: cited from earlier work
gastric acid output [5] = assay: Gastric antisecretory activity in the two hour pylorus ligated (Shay) rat; assay type: in vivo, rat (male Long Evans); conditions: vs cimetidine
Source text: The pyloric ligation procedure in the rat was designed by Shay et al., Gastroenterology, 5, 53 (1945) for the study of perforating gastric ulcers; however, as the method became known, it was also employed as a means of studying rat gastric secretion, Shay et al., Gastroenterology, 26, 906 (1954), Brodie, D. A., Am. J. Dig. […] A modification of this procedure is presently used to evaluate compounds for gastric antisecretory activity.
Male Long Evans rats, 280-300 gm., are used. The animals are placed in individual cages and fasted for 24 hours with free access to water. Under ether anesthesia, the stomach is reached through a midline incision, and a cotton-thread ligature is placed around the pylorus. After wound closure, ether administration is stopped and either BL-5641, cimetidine or vehicle are administered intraperitoneally in a volume of […]. BL-5641 and cimetidine are solubilized with one equivalent of HCl and brought to the proper volume with water. The animals are returned to their cages from which the water bottles have been removed and two hours later are sacrificed with ether. […] Titratable acid output is calculated in microequivalents by multiplying the volume in milliliters by the acid concentration in milliequivalents per liter. The percent inhibition of acid output is calculated as follows [formula]

[6] = molecular target: T1, histamine H2-receptors (isolated, spontaneously beating guinea pig right atria); conditions: cited from earlier work

T1 sequence (P47747 whole entry): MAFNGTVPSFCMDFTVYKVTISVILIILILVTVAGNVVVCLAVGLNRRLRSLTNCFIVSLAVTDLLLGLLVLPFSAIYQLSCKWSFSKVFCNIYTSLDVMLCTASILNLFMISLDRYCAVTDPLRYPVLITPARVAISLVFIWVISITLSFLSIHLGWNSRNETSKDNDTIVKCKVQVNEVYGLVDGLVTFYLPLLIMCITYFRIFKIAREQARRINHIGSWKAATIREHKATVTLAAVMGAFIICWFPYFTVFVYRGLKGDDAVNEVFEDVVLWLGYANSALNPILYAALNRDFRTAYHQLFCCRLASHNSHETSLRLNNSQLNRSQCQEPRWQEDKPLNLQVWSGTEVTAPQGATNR

## CNC(=NC#N)NCCSCc1[nH]cnc1C [Cimetidine]
Peptic ulcer disease
  Effectiveness in treatment of peptic ulcer disease: effective therapeutic agent in the treatment of peptic ulcer disease
[1]
  Agranulocytosis: without producing agranulocytosis
H2 receptor
  H2 antagonist potency/effectiveness: as effective an H2 antagonist as metiamide
[2]
  Half-life: relatively short
Gastric acid output [3]
  Onset of inhibitory effect on gastric acid output: immediate inhibitory effect on gastric acid output
[4]
  Histamine ED50 (concentration of histamine which increased contractile rate 50% of maximum) after test compound: 1.39 µg/mL

## CNC(=S)NCCCCc1cnc[nH]1 [Burimamide]
Gastric secretion; animals and man
  Inhibition of gastric secretion: inhibits gastric secretion in animals and man
Gastric secretion; clinical
  Clinical effectiveness as H2 receptor antagonist: first clinically effective H2 receptor antagonist
H2 receptor; Black et al., Nature 1972
  Mode of antagonism at histamine H2-receptors: competitive antagonist
[2]; po
  Oral absorption: oral absorption is poor

## CNC(=S)NCCSCc1[nH]cnc1C [Metiamide]
Gastric secretion; man
  Oral activity: orally active in man
[1]
  Agranulocytosis: toxicity (agranulocytosis)
H2 receptor
  H2 antagonist potency/effectiveness: more potent than burimamide

## C#CCN=C(NC#N)NCCSCc1[nH]cnc1C [BL-5641, N-Cyano-N'-{2-[(4-methyl-5-imidazolyl)methylthio]ethyl}-N"-propargylguanidine]
Gastric acid output [5]
  Potency for inhibition of gastric acid output: more potent than cimetidine; also recorded: at least as potent as cimetidine
Gastric acid output [3]; equal doses, vs cimetidine
  Duration of activity: longer duration of activity than cimetidine
Gastric acid output [3]; equimolar doses, vs cimetidine
  Degree and duration of inhibition: consistently greater and of longer duration with BL-5641 than with cimetidine
Gastric acid output [3]
  Onset of inhibitory effect on gastric acid output: immediate inhibitory effect on gastric acid output
Gastric acid output [3]; vs cimetidine
  Potency as inhibitor of gastric secretion: more potent and/or longer acting than cimetidine; also recorded: more potent than cimetidine
[4]; isolated guinea pig atria, vs cimetidine
  Potency as histamine H2-receptor antagonist: more potent than cimetidine
[4]
  Histamine ED50 (concentration of histamine which increased contractile rate 50% of maximum) after test compound: 12.44 µg/mL

## NCCc1c[nH]cn1 [Histamine]
[6]
  Effect on contractile rate of guinea pig right atria: concentration-related increases in the contractile rate
[4]; cumulative histamine addition
  Histamine concentration at which maximal response occurred: 30 µM
